Source: article PMC9597602, “Metal Complexes as Antifungals? From a Crowd-Sourced Compound Library to the First In Vivo Experiments” (JACS Au, 2022)
Several values for one entry are separate records, joined by “and”; a condition that tells them apart may be missing. Identical values can stand only once. Like-named read-outs stand apart in the source and are kept apart here. Blank lines part the entries; values can stand above or below the compound they belong to. Starred links: 1 amine or outer side, 2 acyl side, 3 side chain; linkers in the order of their positions; H or OH if unused. Positions of bridges follow the written chain, without caps; N, C: chain ends. Non-standard residues stand in square brackets, D forms with d. Residues, ends and D or L forms follow the SMILES beside them. *: point of attachment. hTyr(3S-OH,4S-OH,3'-OSO3H) = N[C@H](C(=O)O)[C@H](O)[C@@H](O)c1ccc(O)c(OS(=O)(=O)O)c1; Orn(4R-OH,5R-OH) = O=C([C@H](C[C@@H](O)[C@@H](O)N[*:3])N[*:1])[*:2]; Pro(3S-OH,4S-Me) = C[C@H]1CN[C@H](C(=O)O)[C@H]1O; X1 = CCCCCOc1ccc(-c2cc(-c3ccc(C(=O)*)cc3)no2)cc1; Gln(3R-OH) = NC(=O)C[C@@H](O)[C@H](N)C(=O)O; Hyp = O=C(O)[C@@H]1C[C@@H](O)CN1

How the values were obtained:
[1] = system: Candida glabrata ATCC 90030 NCCLS 84; assay: Antifungal MIC assay, extended panel; type: cell-based
human red blood cells = type: cell-based
Method: Human whole blood (Australian Red Cross) was washed three times with 3 vol of 0.9% NaCl and resuspended in a concentration of 0.5 × 10^8 cells/mL, determined by a manual cell count in a Neubauer hemocytometer. […] After incubation, the plates were centrifuged at 1000g for 10 min to pellet cells and debris; 25 μL of the supernatant was then transferred to reading plates (384-well, polystyrene plated (PS), Corning CLS3680), with hemolysis determined by measuring the supernatant absorbance at […] (OD405) using cells without inhibitors as negative control and cells with 1% Triton X-100 (Sigma T8787) as positive control. […] Melittin (Sigma M2272) was used as internal control on each plate.

[2] = system: Cryptococcus neoformans H99 ATCC 208821 type strain; assay: Antifungal MIC assay; type: cell-based
In short: (§1)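 Broth microdilution in YNB medium at a final density of 2.5 × 10^3 CFU/mL, from yeast grown 3 days on YPD agar at 30 °C; incubated 35 °C for 36 h without shaking. MIC is the lowest concentration giving ≥80% growth inhibition (CLSI M27 score 0–1); n = 4–8 from replicate independent runs.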

[3] = system: Pseudomonas aeruginosa ATCC 27853 QC control strain; assay: CO-ADD antibacterial MIC assay; type: cell-based; details: initial CO-ADD dose-response screening; ≥80% growth inhibition
Method: (§2) For the all the bacterial assays, each bacterial strain was cultured in cation-adjusted Mueller Hinton broth (CAMHB; Bacto Laboratories 212322) at 37 °C overnight. A sample of each culture was then diluted 40-fold in fresh CAMHB and incubated at 37 °C for 1.5–3 h. The resultant mid-log phase cultures were diluted with CAMHB (CFU/mL measured by OD600) and then added to each well of the compound-containing plates (384-well non-binding surface (NBS) plates; Corning CLS3640), giving a cell density of 5 × 10^5 CFU/mL and a total volume of 50 μL. Plates were covered and incubated at 37 °C for 18 h without shaking. Inhibition of bacterial growth was determined by measuring the absorbance at 600 nm (OD600) using media only as negative control and bacteria without inhibitors as positive control. MIC values were determined as the lowest concentration at which the growth was inhibited by ≥80% (equivalent to no visible growth by the eye). Colistin sulfate (Sigma C4461) and vancomycin HCl (Sigma 861987) were used as internal controls on each plate for Gram-negative and Gram-positive bacteria, respectively. All compounds were tested as two technical replicates in two independent biological assays, n = 4 final data.

[4] = system: Escherichia coli ATCC 25922 FDA control strain; assay: CO-ADD antibacterial MIC assay; type: cell-based; details: initial CO-ADD dose-response screening; ≥80% growth inhibition
Method: as §2

[5] = system: Acinetobacter baumannii ATCC 19606 type strain; assay: CO-ADD antibacterial MIC assay; type: cell-based; details: initial CO-ADD dose-response screening; ≥80% growth inhibition
Method: as §2

[6] = system: methicillin-resistant Staphylococcus aureus ATCC 43300; assay: CO-ADD antibacterial MIC assay; type: cell-based; details: initial CO-ADD dose-response screening; ≥80% growth inhibition
Method: as §2

[7] = system: Cryptococcus deuterogattii CBS7750 VGII; Serotype B; assay: Antifungal MIC assay, extended panel; type: cell-based
[8] = system: Cryptococcus deuterogattii ATCC 32609 VGII; assay: Antifungal MIC assay, extended panel; type: cell-based; details: extended panel, second batch; ≥80 or ≥50% inhibition
Method: (§3) For the fungal assays, both fungi (yeast) strains were cultured for 3 days on Yeast Extract-Peptone Dextrose (YPD; Becton Dickinson 242720) agar at 30 °C. A yeast suspension of 1 × 10^6 to 5 × 10^6 CFU/mL (as determined by OD530) was prepared from five colonies from the agar plates, subsequently diluted with Yeast Nitrogen Base media (YNB; Becton Dickinson 233520), and added to each well of the compound containing plates (384-well plates, NBS; Corning CLS3640), giving a final cell density of 2.5 × 10^3 CFU/mL and a total volume of 50 μL. Plates were covered and incubated at 35 °C for 36 h without shaking. […] MIC values were recorded as the lowest concentration at which the growth was inhibited by ≥80%, equivalent to ″optically clear-to-slightly hazy″ or MIC score of 0–1 as per CLSI guidelines M27 Reference Method for Broth Dilution Antifungal Susceptibility Testing of Yeasts. […] Fluconazole (Sigma F8929) was used as internal control on each plate for all strains. All compounds were tested as two technical replicates in two to four independent biological assays, n = 4–8 final data.

[9] = system: Cryptococcus deuterogattii CBS7750 VGII; Serotype B; assay: Antifungal MIC assay, extended panel; type: cell-based; details: extended panel, second batch; ≥80 or ≥50% inhibition
Method: as §3

[10] = system: Candida tropicalis ATCC 750; assay: Antifungal MIC assay, extended panel; type: cell-based; details: extended panel, second batch; ≥80 or ≥50% inhibition
Method: as §3

[11] = system: Candida glabrata ATCC 90030 NCCLS 84; assay: Antifungal MIC assay, extended panel; type: cell-based; details: extended panel, second batch; ≥80 or ≥50% inhibition
Method: as §3

[12] = system: Candida albicans ATCC 90028 NCCLS11; assay: Antifungal MIC assay; type: cell-based
In short: as §1

[13] = system: Candida auris CBS10913 JCM 15448; assay: Antifungal MIC assay, extended panel; type: cell-based
Method: as §3, with “values were recorded as the lowest concentration at which the growth was inhibited by ≥80%, equivalent to ″optically clear-to-slightly hazy″ or MIC score of 0–1 as per CLSI guidelines M27” left out

[14] = system: Candida auris CBS12373 KCTC 17810; assay: Antifungal MIC assay, extended panel; type: cell-based; details: for MIC: read-out: MIC* Candida auris CBS12373
Method: as §3, with “values were recorded as the lowest concentration at which the growth was inhibited by ≥80%, equivalent to ″optically clear-to-slightly hazy″ or MIC score of 0–1 as per CLSI guidelines M27” left out

[15] = system: HEK-293 human embryonic kidney cells ATCC CRL-1573; details: initial CO-ADD screening, 20 h
Method: The cells were incubated together with the compounds for 20 h at 37 °C in 5% CO2. […] Tamoxifen (Sigma T5648) was used as internal control on each plate.

[16] = system: Cryptococcus deuterogattii ATCC 32609 VGII; assay: Antifungal MIC assay, extended panel; type: cell-based
[17] = system: Candida tropicalis ATCC 750; assay: Antifungal MIC assay, extended panel; type: cell-based
[18] = extended panel, 50% inhibition, MIC score 2
[19] = extended panel, second batch, ≥80 or ≥50% inhibition
[20] = initial CO-ADD dose-response screening, ≥80% growth inhibition

MIC50 Candida glabrata ATCC 90030 [1, 18]: 0.098 to 0.195 µM
RBC HC10 (human red blood cells; ranges obtained upon retesting, new batch): 2 to 76 µM
MIC Cryptococcus neoformans ATCC 208821 [2, 19]: 0.024 to 0.049 µM
MIC50 Cryptococcus neoformans ATCC 208821 [2, 18]: 0.024 to 0.098 µM
MIC Cn [2, 20]: 2 µg/mL
MIC Pa [3]: >32 µg/mL
MIC Ec [4]: >32 µg/mL
MIC Ab [5]: >32 µg/mL
MIC MRSA (Sa) [6]: 1 µg/mL
MIC50 Cryptococcus deuterogattii CBS7750 [7, 18]: 0.012 to 0.024 µM
MIC Cryptococcus deuterogattii ATCC 32609 [8]: 0.098 to 0.195 µM
MIC [9]: 0.024 µM
MIC Candida tropicalis ATCC 750 [10]: 0.098 to 0.195 µM
MIC [11]: 0.098 µM
MIC Candida albicans ATCC 90028 [12, 19]: 0.049 to 0.098 µM
MIC50 Candida albicans ATCC 90028 [12, 18]: 0.049 to 0.098 µM
MIC Ca [12, 20]: 2 µg/mL
MIC Candida auris CBS10913 [13, 19]: 0.049 to 0.098 µM
MIC50 Candida auris CBS10913 [13, 18]: 0.049 to 0.098 µM
MIC [14, 19]: 0.024 µM
MIC50 Candida auris CBS12373 [14, 18]: 0.024 µM
MIC50 Cryptococcus deuterogattii ATCC 32609 [16, 18]: 0.098 to 0.195 µM
MIC50 Candida tropicalis ATCC 750 [17, 18]: 0.098 to 0.195 µM
Structure (SMILES): Cc1c(C)c(-c2ccc(-c3ccccc3)cc2)[c-](C)c1C.Cc1ccccc1NC1=[NH+][Ir]([Cl])[NH]C(NS(=O)(=O)c2ccc([N+](=O)[O-])cc2)=N1 [Ir2]
RBC HC10 (human red blood cells; initial CO-ADD screening, 1 h, 10% hemolysis): >32 µg/mL
HEK CC50 [15]: >32 µg/mL

Structure (SMILES): CCCCCOc1ccc(-c2cc(-c3ccc(C(=O)N[C@H]4C[C@@H](O)[C@@H](O)NC(=O)[C@@H]5[C@@H](O)[C@@H](C)CN5C(=O)[C@H]([C@H](O)CC(N)=O)NC(=O)[C@H]([C@H](O)[C@@H](O)c5ccc(O)c(OS(=O)(=O)O)c5)NC(=O)[C@@H]5C[C@@H](O)CN5C(=O)[C@H]([C@@H](C)O)NC4=O)cc3)no2)cc1 [Micafungin, reference compound] (X1-[Orn(4R-OH,5R-OH)]T[Hyp][hTyr(3S-OH,4S-OH,3'-OSO3H)][Gln(3R-OH)][Pro(3S-OH,4S-Me)]; lactam 1-C)
MIC ([1]; Nakaseomyces glabratus, ATCC90030, read-out: MIC* Candida glabrata ATCC 90030): 4 µg/mL to 32 µg/mL and 4.45 µM to 35.7 µM
MIC ([2]; Cryptococcus neoformans, ATCC208821, read-out: MIC* Cryptococcus neoformans ATCC 208821): 0.015 µg/mL to 0.063 µg/mL and 0.017 µM to 0.07 µM
MIC ([7]; Cryptococcus deuterogattii, CBS7750, read-out: MIC* Cryptococcus deuterogattii CBS7750): 0.06 µg/mL to 0.125 µg/mL and 0.07 µM to 0.139 µM
MIC ([12]; Candida albicans, ATCC90028, read-out: MIC* Candida albicans ATCC 90028): ≤ 0.0005 µg/mL and ≤ 0.0007 µM
MIC ([13]; Candidozyma auris, read-out: MIC* Candida auris CBS10913): ≤ 0.001 µg/mL and ≤ 0.0014 µM
MIC ([14]; Candidozyma auris): 2 µg/mL and 2.23 µM
MIC ([16]; Cryptococcus deuterogattii, ATCC32609, read-out: MIC* Cryptococcus deuterogattii ATCC 32609): 0.016 µg/mL to 0.125 µg/mL and 0.017 µM to 0.139 µM
MIC ([17]; Candida tropicalis, ATCC750, read-out: MIC* Candida tropicalis ATCC 750): 0.008 µg/mL to 0.063 µg/mL and 0.009 µM to 0.07 µM
